Measurements from patent US8546608B2, “Proteasome inhibitors and methods of using the same” (Cephalon, Inc., priority 2003, dated 2013).

How the values were obtained:
[1] = target: T1, 20S Human Erythrocyte Proteasome (HEP) (Homo sapiens, UniProt P20618+P28074); assay: Chymotrypsin-like activity of 20S Human Erythrocyte Proteasome (HEP), IC50 determination; assay type: biochemical; conditions: assay of Example C, inhibition of HEP
T1 construct: 20S Human Erythrocyte Proteasome (HEP), purchased from Immatics Biotechnologies Inc; purchased Immatics Biotechnologies Inc., Tübingen, Germany; host or cells: human erythrocytes (natural source)
Outline: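 20S proteasome at 0.2 μg/mL (about 0.6 nM catalytic sites) in 20 mM Tris with 0.04% SDS, preincubated 15 min at 37° C with inhibitor before Suc-LLVY-AMC (100 μM final). AMC fluorescence read in the linear range; triplicates, IC50 from concentration series.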

[2] = target: T2, proteasome in Molt-4 cells (human leukemia) (Homo sapiens, UniProt P20618+P28074); assay type: cell-based; conditions: assay of Example E, inhibition of MOLT4; read-out: MOLT4 (EC50)
T2 sequence (P28074 60-263): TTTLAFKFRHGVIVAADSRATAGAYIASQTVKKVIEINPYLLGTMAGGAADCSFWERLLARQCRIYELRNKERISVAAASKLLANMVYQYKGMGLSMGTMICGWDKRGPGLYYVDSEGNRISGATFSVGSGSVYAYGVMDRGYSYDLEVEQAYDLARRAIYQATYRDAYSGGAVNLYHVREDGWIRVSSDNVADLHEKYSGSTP
T2 sequence (P20618 29-241): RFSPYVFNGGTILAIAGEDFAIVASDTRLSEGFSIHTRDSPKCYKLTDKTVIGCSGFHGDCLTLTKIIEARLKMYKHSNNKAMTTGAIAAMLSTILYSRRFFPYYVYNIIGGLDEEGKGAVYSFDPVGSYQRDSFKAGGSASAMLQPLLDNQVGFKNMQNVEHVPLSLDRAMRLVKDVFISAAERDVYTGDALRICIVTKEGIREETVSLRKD
Outline: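 Intact Molt-4 cells (6×10^6 cells/mL) in HEPES-buffered saline were preincubated with inhibitor 15 min at 37 °C, then given cell-permeable MeOSuc-FLF-AFC at 25 μM final.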

| SMILES | IC50 [1] [µM] | EC50 [2] [µM] |
| --- | --- | --- |
| CC(C)C[C@H](NC(=O)[C@H](CCCNC(=N)N[N+](=O)[O-])NC(=O)c1ccc(Br)cc1)B(O)O [D.7.39, Boronic acid, [(1R)-1-[[(2S)-5-[[imino(nitroamino)methyl]amino]-2-[(4-bromobenzoyl)amino]-1-oxopentyl]amino]-3-methylbutyl]] | < 0.01 | 2 to 10 |
| CCCCCCCCCCC(=O)N[C@@H](CCCNC(=N)N[N+](=O)[O-])C(=O)N[C@@H](CC(C)C)B(O)O [D.7.41, Boronic acid, [(1R)-1-[[(2S)-5-[[imino(nitroamino)methyl]amino]-2-[(undecanoyl)amino]-1-oxopentyl]amino]-3-methylbutyl]] | < 0.01 | < 0.2 |
| CC(C)C[C@H](NC(=O)[C@H](CCCNC(=N)N[N+](=O)[O-])NC(=O)CCCCCCCCCCC#N)B(O)O [D.7.60, Boronic acid, [(1R)-1-[[(2S)-5-[[imino(nitroamino)methyl]amino]-2-[(11-cianoundecanoyl)amino]-1-oxopentyl]amino]-3-methylbutyl]] | < 0.01 | 2 to 10 |
| CC(C)C[C@H](NC(=O)[C@H](CCCNC(=N)N[N+](=O)[O-])NC(=O)CCCCCCCCC#N)B(O)O [D.7.61, Boronic acid, [(1R)-1-[[(2S)-5-[[imino(nitroamino)methyl]amino]-2-[(9-cyanononanoyl)amino]-1-oxopentyl]amino]-3-methylbutyl]] | < 0.01 | > 10 |
| CCCCCCCCCC(=O)N[C@H](C(=O)N[C@@H](CC(C)C)B1O[C@@H]2C[C@@H]3C[C@@H](C3(C)C)[C@]2(C)O1)[C@@H](C)O [D.8, Decanamide, N-[(1S,2R)-1-[[[(1R)-1-[(3aS,4S,6S,7aR)-hexahydro-3a,5,5-trimethyl-4,6-methano-1,3,2-benzodioxaborol-2-yl]-3-methylbutyl]amino]carbonyl]-2-hydroxypropyl]-] | < 0.01 | < 0.2 |
| CC(C)C[C@H](NC(=O)[C@@H](NC(=O)c1cnccn1)[C@@H](C)O)B1O[C@@H]2C[C@@H]3C[C@@H](C3(C)C)[C@]2(C)O1 [D.8.4, 2-Pyrazinecarbossamide, N-[(1S,2R)-1-[[[(1R)-1-[(3aS,4S, 6S,7aR)-hexahydro-3a,5,5-trimethyl-4,6-methano-1,3,2-benzodioxaborol-2-yl]-3-melthylbutyl]amino]carbonyl]-2-hydroxypropyl]] | < 0.1 | < 0.2 |
| CCCCCCCCCCCCC(=O)N[C@H](C(=O)N[C@@H](CC(C)C)B1O[C@@H]2C[C@@H]3C[C@@H](C3(C)C)[C@]2(C)O1)[C@@H](C)O [D.8.5, Tridecanamide, N-[(1S,2R)-1-[[[(1R)-1-[(3aS,4S,6S,7aR)-hexahydro-3a,5,5-trimethyl-4,6-methano-1,3,2-benzodioxaborol-2-yl]-3-methylbutyl]amino]carbonyl]-2-hydroxypropyl]] | < 0.01 | < 0.2 |
| CC(C)C[C@H](NC(=O)[C@@H](NC(=O)c1ccc(-c2ccccc2)cc1)[C@@H](C)O)B1O[C@@H]2C[C@@H]3C[C@@H](C3(C)C)[C@]2(C)O1 [D.8.6, 4-Phenylbenzamide, N-[(1S,2R)-1-[[[(1R)-1-[(3aS,4S,6S,7aR)-hexahydro-3a,5,5-trimethyl-4,6-methano-1,3,2-benzodioxaborol-2-yl]-3-methylbutyl]amino]carbonyl]-2-hydroxypropyl]] | < 0.01 | < 0.2 |
| CC(C)C[C@H](NC(=O)[C@H](CC(N)=O)NC(=O)c1cnccn1)B1O[C@@H]2C[C@@H]3C[C@@H](C3(C)C)[C@]2(C)O1 [D.8.18, 2-Pyrazinecarboxamide, N-[(1S)-1-[[[(1R)-1-[(3aS,4S,6S,7aR)-hexahydro-3a,5,5-trimethyl-4,6-methano-1,3,2-benzodioxaborol-2-yl]-3-methylbutyl]amino]carbonyl]-2-carbamoylethyl]] | < 0.1 | 0.2 to 2 |
